Measured values reported in patent US12371454B2, “Cyclic peptide compound having Kras inhibitory action” (priority 2019, dated 2025).
Starred links: 1 amine or outer side, 2 acyl side, 3 side chain; linkers in the order of their positions; H or OH if unused. Positions of bridges follow the written chain, without caps; N, C: chain ends. Non-standard residues stand in square brackets, D forms with d. Residues, ends and D or L forms follow the SMILES beside them. *: point of attachment. hPhe(3,5-F2-4-CF3) = N[C@@H](CCc1cc(F)c(C(F)(F)F)c(F)c1)C(=O)O; hPhe(3-Cl-4-CF3) = N[C@@H](CCc1ccc(C(F)(F)F)c(Cl)c1)C(=O)O; Phe(2-OCF3) = N[C@@H](Cc1ccccc1OC(F)(F)F)C(=O)O; NMePhe(4-Me) = CN[C@@H](Cc1ccc(C)cc1)C(=O)O; hPhe(4-Cl) = N[C@@H](CCc1ccc(Cl)cc1)C(=O)O; NMeGly(cPent) = CN[C@H](C(=O)O)C1CCCC1; Phe(3-I) = N[C@@H](Cc1cccc(I)c1)C(=O)O; X26 = O=C([C@@H]1CCC[C@H]1N[*:1])[*:2]; NMeAla(cPr) = CN[C@@H](CC1CC1)C(=O)O; NMeCha = CN[C@@H](CC1CCCCC1)C(=O)O; NMeChg = CN[C@H](C(=O)O)C1CCCCC1; NMeI = CC[C@H](C)[C@H](NC)C(=O)O; dNMeF = CN[C@H](Cc1ccccc1)C(=O)O; NMeD = CN[C@@H](CC(=O)O)C(=O)O; NMeL = CN[C@@H](CC(C)C)C(=O)O; Chg = N[C@H](C(=O)O)C1CCCCC1; NMeV = CN[C@H](C(=O)O)C(C)C; d(β3hA) = C[C@@H](N)CC(=O)O; NMeS = CN[C@@H](CO)C(=O)O; Pip = O=C(O)[C@@H]1CCCCN1; Iva = CC[C@](C)(N)C(=O)O; Morpholide = C1CN(*)CCO1; NMeA = CN[C@@H](C)C(=O)O; NMeAib = CNC(C)(C)C(=O)O; Piperidide = C1CCN(*)CC1; Ac5c = NC1(C(=O)O)CCCC1; Aze = O=C(O)[C@@H]1CCN1; Sar = CNCC(=O)O; Propyl = CCC*

Each compound was assayed against T1, Kras and SOS1 (biotin-tagged human Kras loaded with GDP, His-tagged human SOS1) (Homo sapiens, UniProt P01116, G12D) (assay: Protein-protein interaction inhibition between Kras and SOS1 (KrasGl2D-SOS PPI) using AlphaScreen). Conditions: AlphaScreen; biotin-tagged human Kras loaded with GDP, His-tagged human SOS1; read-out: KRAS G12D-SOS PPI IC50.
T1 construct: made in house; host or cells: E. coli (stated for Kras only)
T1 sequence (P01116 1-188 isoform P01116-2 G12D): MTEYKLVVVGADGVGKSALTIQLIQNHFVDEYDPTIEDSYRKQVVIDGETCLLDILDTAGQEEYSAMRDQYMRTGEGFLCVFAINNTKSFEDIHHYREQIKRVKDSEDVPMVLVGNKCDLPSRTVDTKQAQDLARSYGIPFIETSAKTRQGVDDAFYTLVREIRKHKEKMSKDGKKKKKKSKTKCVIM
Format: binding
Protocol: Protein-Protein Interaction Inhibition Between Kras and SOS1 (KrasGl2D-SOS PPI) Using AlphaScreen
Protein-protein interaction inhibition (PPI) between Kras and SOS1 was measured by energy transfer from nickel-conjugated donor beads to streptavidin-conjugated acceptor beads using biotin-tagged human Kras expressed in E. coli and loaded with GDP after purification and His-tagged human SOS1 enzyme. This measurement utilizes the phenomenon in which donor beads are irradiated with light at 680 nm, such that energy is transferred to acceptor beads through singlet oxygen and light at 520-620 nm is detected from the acceptor beads.
Inhibition of binding between K-ras and SOS1 is known to inhibit signaling downstream of Kras.
Work on `CC[C@H](C)[C@@H]1NC(=O)[C@H](CC(C)C)N(C)C(=O)C[C@@H](C)NC(=O)[C@H](C(C)C)N(C)C(=O)[C@](C)(CC)NC(=O)[C@@H]2CCCN2C(=O)[C@H](CCc2ccc(C(F)(F)F)c(Cl)c2)NC(=O)CN(C)C(=O)[C@H](CC2CCCCC2)N(C)C(=O)CN(C)C(=O)CN(C)C1=O` [Compound 149] (cyclo(I[Sar][Sar][NMeCha][Sar][hPhe(3-Cl-4-CF3)]P[Iva][NMeV][d(β3hA)][NMeL])) yielded an IC50 of 0.051 µM. Compound `CC[C@H](C)[C@@H]1NC(=O)[C@H](CC(C)C)N(C)C(=O)C[C@@H](C(=O)N2CCCCC2)N(C)C(=O)[C@H](C2CCCCC2)N(C)C(=O)C2(CCCC2)NC(=O)[C@@H]2CCCN2C(=O)[C@H](CCc2ccc(C(F)(F)F)c(Cl)c2)NC(=O)CN(C)C(=O)[C@H](C)N(C)C(=O)CN(C)C(=O)CN(C)C1=O` [Compound 1681] ([NMeL]I[Sar][Sar][NMeA][Sar][hPhe(3-Cl-4-CF3)]P[Ac5c][NMeChg][NMeD]-Piperidide; lactam N-11) has an IC50 of 0.0031 µM. `CCCOC[C@H]1C(=O)N(C)CC(=O)N[C@@H](CCc2ccc(C(F)(F)F)c(Cl)c2)C(=O)N2CCC[C@H]2C(=O)NC2(CCCC2)C(=O)N(C)[C@@H](C2CCCC2)C(=O)N(C)[C@H](C(=O)N2CCOCC2)CC(=O)N(C)[C@@H](CC(C)C)C(=O)N[C@@H]([C@@H](C)CC)C(=O)N(C)[C@@H](C)C(=O)N2CC[C@H]2C(=O)N1C` [Compound 974] ([NMeL]I[NMeA][Aze][NMeS](Propyl)[Sar][hPhe(3-Cl-4-CF3)]P[Ac5c][NMeGly(cPent)][NMeD]-Morpholide; lactam N-11) was tested, and the IC50 was 0.00091 µM. For `CC[C@H](C)[C@@H]1NC(=O)[C@H](CC(C)C)N(C)C(=O)[C@@H]2CCC[C@H]2NC(=O)[C@H](C(C)C)N(C)C(=O)C2(CCCC2)NC(=O)[C@@H]2CCCN2C(=O)[C@H](CCc2ccc(C(F)(F)F)c(Cl)c2)NC(=O)CN(C)C(=O)[C@H](CC2CCCCC2)N(C)C(=O)CN(C)C(=O)CN(C)C1=O` [Compound 347] (cyclo([Ac5c][NMeV][X26][NMeL]I[Sar][Sar][NMeCha][Sar][hPhe(3-Cl-4-CF3)]P)), the IC50 was 0.027 µM. Compound `CC[C@H](C)[C@@H]1NC(=O)[C@H](CC(C)C)N(C)C(=O)C[C@@H](C(=O)N2CCCCC2)N(C)C(=O)[C@H](CC(C)C)NC(=O)C(C)(C)N(C)C(=O)[C@H](Cc2ccccc2OC(F)(F)F)NC(=O)[C@H](Cc2cccc(I)c2)NC(=O)CN(C)C(=O)[C@H](Cc2ccc(C)cc2)N(C)C(=O)[C@@H]2CCN2C(=O)[C@H](C)N(C)C1=O` [Compound 1129] ([NMeL]I[NMeA][Aze][NMePhe(4-Me)][Sar][Phe(3-I)][Phe(2-OCF3)][NMeAib]L[NMeD]-Piperidide; lactam N-11) has an IC50 of 0.15 µM. With `CC[C@H](C)[C@@H]1NC(=O)[C@@H]2CCCCN2C(=O)C[C@@H](C(=O)N2CCCCC2)N(C)C(=O)[C@H](C(C)C)N(C)C(=O)C2(CCCC2)NC(=O)[C@@H]2CCCN2C(=O)[C@H](CCc2ccc(Cl)cc2)NC(=O)CN(C)C(=O)[C@H](CC2CCCCC2)N(C)C(=O)CN(C)C(=O)CN(C)C1=O` [Compound 841] ([Pip]I[Sar][Sar][NMeCha][Sar][hPhe(4-Cl)]P[Ac5c][NMeV][NMeD]-Piperidide; lactam N-11) the IC50 was 0.024 µM. `CC[C@H](C)[C@@H]1NC(=O)[C@H](CC(C)C)N(C)C(=O)C[C@@H](C(=O)N2CCCCC2)N(C)C(=O)[C@H]([C@@H](C)CC)N(C)C(=O)C2(CCCC2)NC(=O)[C@@H](Cc2ccccc2)N(C)C(=O)[C@H](CCc2cc(F)c(C(F)(F)F)c(F)c2)NC(=O)CN(C)C(=O)[C@H](Cc2ccc(C)cc2)N(C)C(=O)[C@@H]2CCN2C(=O)[C@H](C)N(C)C1=O` [Compound 1895] ([NMeL]I[NMeA][Aze][NMePhe(4-Me)][Sar][hPhe(3,5-F2-4-CF3)][dNMeF][Ac5c][NMeI][NMeD]-Piperidide; lactam N-11) showed an IC50 of 0.36 µM. Compound `CC(C)C[C@H]1C(=O)N[C@@H](C2CCCCC2)C(=O)N(C)CC(=O)N(C)CC(=O)N(C)[C@@H](CC2CCCCC2)C(=O)N(C)CC(=O)N[C@@H](CCc2ccc(C(F)(F)F)c(Cl)c2)C(=O)N2CCC[C@H]2C(=O)NC2(CCCC2)C(=O)N(C)[C@@H](C(C)C)C(=O)N(C)[C@H](C(=O)N2CCCCC2)CC(=O)N1C` [Compound 281] ([NMeL][Chg][Sar][Sar][NMeCha][Sar][hPhe(3-Cl-4-CF3)]P[Ac5c][NMeV][NMeD]-Piperidide; lactam N-11) has an IC50 of 0.0078 µM. Work on `CC[C@H](C)[C@@H]1NC(=O)[C@H](CC(C)C)N(C)C(=O)C[C@@H](C)NC(=O)[C@H](C(C)C)N(C)C(=O)C2(CCCC2)NC(=O)[C@@H]2CCCN2C(=O)[C@H](CCc2ccc(C(F)(F)F)c(Cl)c2)NC(=O)CN(C)C(=O)[C@H](CC2CCCCC2)N(C)C(=O)[C@@H]2CCN2C(=O)[C@H](CC2CC2)N(C)C1=O` [Compound 1612] (cyclo([Ac5c][NMeV][d(β3hA)][NMeL]I[NMeAla(cPr)][Aze][NMeCha][Sar][hPhe(3-Cl-4-CF3)]P)) yielded an IC50 of 0.39 µM.
